Measured values reported in patent US6573275B1, “Bicyclic amines” (Syngenta Limited, priority 1995, dated 2003).

System: peach aphid (Myzus persicae)
Assay: Insecticidal test against peach aphid, infested Chinese cabbage leaves sprayed
Type: in vivo
Details: peach aphid (Myzus persicae) on Chinese cabbage leaves, sprayed with 500 ppm composition unless otherwise stated, mortality assessed after 3 days
Procedure, shortened: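 Aphid-infested Chinese cabbage leaves were sprayed with compound at 500 ppm unless otherwise stated, formulated in acetone/ethanol diluted with water containing 0.05% Synperonic NP8. Mortality was assessed after 3 days.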

**Q.** How did the “Score (grading of mortality)” value turn out when N#CC1(c2cncc(C(F)(F)F)c2)CC2CCC(C1)N2CC(F)(F)F (stereo not drawn) [Compound 199] was run?
**A.** A (A indicates 80-100% mortality)

**Q.** With CN1C2CCC1CC(C#N)(c1cc(-c3ccncn3)ncn1)C2 (stereo not drawn) [Compound 200] as the molecule, how does the “Score (grading of mortality)” value read?
**A.** A (A indicates 80-100% mortality)

**Q.** Which “Score (grading of mortality)” value does the source give for CC(=O)c1cncc(C2(C#N)CC3CCC(C2)N3C)c1 (stereo not drawn) [Compound 201, exo-3-(5-acetylpyrid-3-yl)-endo-3-cyano-8-methyl-8-azabicyclo[3.2.1]octane] here?
**A.** A (A indicates 80-100% mortality)

**Q.** For CN1C2CCC1CC(C#N)(c1cncc(F)c1)C2 (stereo not drawn) [Compound 202, exo-3-(5-fluoropyrid-3-yl)-endo-3-cyano-8-methyl-8-azabicyclo[3.2.1]octane], which “Score (grading of mortality)” value is on record?
**A.** A (A indicates 80-100% mortality)

**Q.** For N#CC1(c2cncc(Br)c2)CC2CCC(C1)N2 (stereo not drawn) [Compound 203], which “Score (grading of mortality)” value is on record?
**A.** A (A indicates 80-100% mortality)

**Q.** With N#CC1(c2cncc(Br)c2)CC2CCC(C1)N2Cc1ccccc1Cl (stereo not drawn) [Compound 204] as the molecule, how does the “Score (grading of mortality)” value read?
**A.** A (A indicates 80-100% mortality)

**Q.** With CC(C)(c1cccc(Cl)c1)N1C2CCC1CC(C#N)(c1cncc(Cl)c1)C2 (stereo not drawn) [Compound 205] as the molecule, how does the “Score (grading of mortality)” value read?
**A.** A (A indicates 80-100% mortality)

**Q.** For CN1C2CCC1CC(C#N)(c1cncc(C(C)(C)O)c1)C2 (stereo not drawn) [Compound 206], which “Score (grading of mortality)” value is on record?
**A.** A (A indicates 80-100% mortality)

**Q.** For C#CC(C)(C)N1C2CCC1CC(C#N)(c1cncc(Cl)c1)C2 (stereo not drawn) [Compound 207], which “Score (grading of mortality)” value is on record?
**A.** A (A indicates 80-100% mortality)

**Q.** How did the “Score (grading of mortality)” value turn out when CCOC(=O)N1C2CCC1CC(C#N)(c1cncc(Br)c1)C2 (stereo not drawn) [Compound 208] was run?
**A.** A (A indicates 80-100% mortality)

**Q.** With CC(C)(N1C2CCC1CC(C#N)(c1cncc(Cl)c1)C2)C(F)(F)F (stereo not drawn) [Compound 209, exo-3-(5-chloropyrid-3-yl)-endo-3-cyano-8-(1,1-dimethyl-2,2,2-trifluoroethyl)-8-azabicyclo[3.2.1]octane] as the molecule, how does the “Score (grading of mortality)” value read?
**A.** A (A indicates 80-100% mortality)

**Q.** CC(C)CN1C2CCC1CC(C#N)(c1cncc(Br)c1)C2 (stereo not drawn) [Compound 210] was tested. Which “Score (grading of mortality)” value did it give?
**A.** A (A indicates 80-100% mortality)

**Q.** COc1cncc(C2(C#N)CC3CCC(C2)N3C)n1 (stereo not drawn) [Compound 214] was tested. Which “Score (grading of mortality)” value did it give?
**A.** A (A indicates 80-100% mortality)

**Q.** Which “Score (grading of mortality)” value does the source give for N#CC(c1cccc(Cl)c1)N1C2CCC1CC(C#N)(c1cncc(Cl)c1)C2 (stereo not drawn) [Compound 215] here?
**A.** A (A indicates 80-100% mortality)

**Q.** For C=COC(=O)N1C2CCC1CC(C#N)(c1cncc(-c3ccccc3)c1)C2 (stereo not drawn) [Compound 217, exo-3-(5-phenylpyrid-3-yl)-endo-3-cyano-8-(vinyloxycarbonyl)-8-azabicyclo[3.2.1]octane], which “Score (grading of mortality)” value is on record?
**A.** A (A indicates 80-100% mortality)

**Q.** How did the “Score (grading of mortality)” value turn out when N#CC1(c2cncc(Cl)c2)CC2CCC(C1)N2CCC=C(F)F (stereo not drawn) [Compound 218] was run?
**A.** A (A indicates 80-100% mortality)

**Q.** Which “Score (grading of mortality)” value does the source give for N#CC1(c2cncc(-c3ccccc3)c2)CC2CCC(C1)N2 (stereo not drawn) [Compound 220, exo-3-(5-phenylpyrid-3-yl)-endo-3-cyano-8-azabicyclo[3.2.1]octane] here?
**A.** A (A indicates 80-100% mortality)

**Q.** With C=COC(=O)N1C2CCC1CC(C#N)(c1cncc(C)c1)C2 (stereo not drawn) [Compound 221, exo-3-(5-methylpyrid-3-yl)-endo-3-cyano-8-(vinyloxycarbonyl)-8-azabicyclo[3.2.1]octane] as the molecule, how does the “Score (grading of mortality)” value read?
**A.** A (A indicates 80-100% mortality)

**Q.** C=COC(=O)N1C2CCC1CC(C#N)(c1cncc(C(=O)OCC)c1)C2 (stereo not drawn) [Compound 222, exo-3-(5-(ethoxycarbonyl)pyrid-3-yl)-endo-3-cyano-8-(vinyloxycarbonyl)-8-azabicyclo[3.2.1]octane] was tested. Which “Score (grading of mortality)” value did it give?
**A.** C (C indicates less than 40% mortality)

**Q.** CC(C)(C#N)N1C2CCC1CC(C#N)(c1cncc(Cl)c1)C2 (stereo not drawn) [Compound 223, exo-3-(5-chloropyrid-3-yl)-endo-3-cyano-8-(2-cyanoprop-2-yl)-8-azabicyclo[3.2.1]octane] was tested. Which “Score (grading of mortality)” value did it give?
**A.** C (C indicates less than 40% mortality)

**Q.** Which “Score (grading of mortality)” value does the source give for CCOC(=O)c1cncc(C2(C#N)CC3CCC(C2)N3)c1 (stereo not drawn) [Compound 225] here?
**A.** A (A indicates 80-100% mortality)

**Q.** Which “Score (grading of mortality)” value does the source give for N#CC1(c2cncc(Cl)c2)CC2CCC(C1)N2Cc1cc(C(F)(F)F)cc(C(F)(F)F)c1 (stereo not drawn) [Compound 227] here?
**A.** A (A indicates 80-100% mortality)

**Q.** How did the “Score (grading of mortality)” value turn out when N#CC1(c2cncc(Cl)c2)CC2CCC(C1)N2Cc1c(F)cccc1F (stereo not drawn) [Compound 228] was run?
**A.** A (A indicates 80-100% mortality)

**Q.** With N#CC1(c2cncc(Cl)c2)CC2CCC(C1)N2Cc1cccc(Oc2ccccc2)c1 (stereo not drawn) [Compound 229] as the molecule, how does the “Score (grading of mortality)” value read?
**A.** A (A indicates 80-100% mortality)

**Q.** With N#CC1(c2cncc(Cl)c2)CC2CCC(C1)N2Cc1ccc(F)c(Br)c1 (stereo not drawn) [Compound 230] as the molecule, how does the “Score (grading of mortality)” value read?
**A.** A (A indicates 80-100% mortality)

**Q.** How did the “Score (grading of mortality)” value turn out when N#CC1(c2cncc(Cl)c2)CC2CCC(C1)N2Cc1cccc(C(=O)c2ccccc2)c1 (stereo not drawn) [Compound 231] was run?
**A.** A (A indicates 80-100% mortality)

**Q.** With N#CC1(c2cncc(Cl)c2)CC2CCC(C1)N2Cc1cccc(C(=O)c2c(Cl)cccc2Cl)c1 (stereo not drawn) [Compound 232] as the molecule, how does the “Score (grading of mortality)” value read?
**A.** A (A indicates 80-100% mortality)

**Q.** With N#CC1(c2cncc(Cl)c2)CC2CCC(C1)N2Cc1cccc(C(=O)c2c(F)cccc2F)c1 (stereo not drawn) [Compound 233] as the molecule, how does the “Score (grading of mortality)” value read?
**A.** A (A indicates 80-100% mortality)

**Q.** For C=CCc1c(F)c(F)c(CN2C3CCC2CC(C#N)(c2cncc(Cl)c2)C3)c(F)c1F (stereo not drawn) [Compound 234], which “Score (grading of mortality)” value is on record?
**A.** A (A indicates 80-100% mortality)

**Q.** For N#CC1(c2cncc(Cl)c2)CC2CCC(C1)N2Cc1cccc(OC(F)(F)F)c1 (stereo not drawn) [Compound 235], which “Score (grading of mortality)” value is on record?
**A.** A (A indicates 80-100% mortality)

**Q.** With N#CC1(c2cncc(Cl)c2)CC2CCC(C1)N2Cc1cccc2ccccc12 (stereo not drawn) [Compound 236] as the molecule, how does the “Score (grading of mortality)” value read?
**A.** A (A indicates 80-100% mortality)

**Q.** Which “Score (grading of mortality)” value does the source give for N#C[C@@]1(c2cncc(Cl)c2)C[C@H]2CC[C@@H](C1)N2Cc1ccccc1 [Compound 237, exo-3-(5-chloropyrid-3-yl)-endo-3-cyano-8-benzyl-8-azabicyclo[3.2.1]octane] here?
**A.** A (A indicates 80-100% mortality)

**Q.** N#CC1(c2cncc(Cl)c2)CC2CCC(C1)N2Cc1ccccc1Br (stereo not drawn) [Compound 238] was tested. Which “Score (grading of mortality)” value did it give?
**A.** A (A indicates 80-100% mortality)

**Q.** Which “Score (grading of mortality)” value does the source give for Cc1ccccc1CN1C2CCC1CC(C#N)(c1cncc(Cl)c1)C2 (stereo not drawn) [Compound 239] here?
**A.** A (A indicates 80-100% mortality)

**Q.** How did the “Score (grading of mortality)” value turn out when N#CC1(c2cncc(Cl)c2)CC2CCC(C1)N2Cc1cccc(Br)c1 (stereo not drawn) [Compound 240] was run?
**A.** A (A indicates 80-100% mortality)

**Q.** With COC(=O)c1cccc(CN2C3CCC2CC(C#N)(c2cncc(Cl)c2)C3)c1 (stereo not drawn) [Compound 241] as the molecule, how does the “Score (grading of mortality)” value read?
**A.** A (A indicates 80-100% mortality)

**Q.** Which “Score (grading of mortality)” value does the source give for Cc1cccc(CN2C3CCC2CC(C#N)(c2cncc(Cl)c2)C3)c1 (stereo not drawn) [Compound 242] here?
**A.** A (A indicates 80-100% mortality)

**Q.** How did the “Score (grading of mortality)” value turn out when N#CC1(c2cncc(Cl)c2)CC2CCC(C1)N2Cc1ccc(Br)cc1 (stereo not drawn) [Compound 243] was run?
**A.** A (A indicates 80-100% mortality)

**Q.** For CC(C)(C)C(=O)c1ccc(CN2C3CCC2CC(C#N)(c2cncc(Cl)c2)C3)cc1 (stereo not drawn) [Compound 245], which “Score (grading of mortality)” value is on record?
**A.** A (A indicates 80-100% mortality)

**Q.** For CC(C)(C)c1ccc(CN2C3CCC2CC(C#N)(c2cncc(Cl)c2)C3)cc1 (stereo not drawn) [Compound 246], which “Score (grading of mortality)” value is on record?
**A.** A (A indicates 80-100% mortality)

**Q.** How did the “Score (grading of mortality)” value turn out when CC(C)c1ccc(CN2C3CCC2CC(C#N)(c2cncc(Cl)c2)C3)cc1 (stereo not drawn) [Compound 247] was run?
**A.** A (A indicates 80-100% mortality)

**Q.** For Cc1ccc(CN2C3CCC2CC(C#N)(c2cncc(Cl)c2)C3)cc1 (stereo not drawn) [Compound 248], which “Score (grading of mortality)” value is on record?
**A.** A (A indicates 80-100% mortality)

**Q.** How did the “Score (grading of mortality)” value turn out when N#CC1(c2cncc(Cl)c2)CC2CCC(C1)N2Cc1ccc(F)c(F)c1 (stereo not drawn) [Compound 249] was run?
**A.** A (A indicates 80-100% mortality)

**Q.** Which “Score (grading of mortality)” value does the source give for N#CC1(c2cncc(Cl)c2)CC2CCC(C1)N2Cc1ccccc1F (stereo not drawn) [Compound 250] here?
**A.** A (A indicates 80-100% mortality)

**Q.** Which “Score (grading of mortality)” value does the source give for N#CC1(c2cncc(Cl)c2)CC2CCC(C1)N2Cc1cc(F)cc(Br)c1 (stereo not drawn) [Compound 251] here?
**A.** A (A indicates 80-100% mortality)

**Q.** For N#CC1(c2cncc(Cl)c2)CC2CCC(C1)N2Cc1ccc(F)cc1F (stereo not drawn) [Compound 252], which “Score (grading of mortality)” value is on record?
**A.** A (A indicates 80-100% mortality)

**Q.** Which “Score (grading of mortality)” value does the source give for N#CC1(c2cncc(Cl)c2)CC2CCC(C1)N2Cc1cccc(F)c1 (stereo not drawn) [Compound 253] here?
**A.** A (A indicates 80-100% mortality)

**Q.** With N#CC1(c2cncc(Cl)c2)CC2CCC(C1)N2Cc1ccc(F)cc1 (stereo not drawn) [Compound 254] as the molecule, how does the “Score (grading of mortality)” value read?
**A.** A (A indicates 80-100% mortality)

**Q.** With N#CC1(c2cncc(Cl)c2)CC2CCC(C1)N2Cc1cccc(C(F)(F)F)c1 (stereo not drawn) [Compound 255] as the molecule, how does the “Score (grading of mortality)” value read?
**A.** A (A indicates 80-100% mortality)

**Q.** With N#CC1(c2cncc(Cl)c2)CC2CCC(C1)N2Cc1ccc(C(F)(F)F)cc1 (stereo not drawn) [Compound 256] as the molecule, how does the “Score (grading of mortality)” value read?
**A.** A (A indicates 80-100% mortality)

**Q.** For N#CC1(c2cncc(Cl)c2)CC2CCC(C1)N2Cc1cccc(Cl)c1F (stereo not drawn) [Compound 257], which “Score (grading of mortality)” value is on record?
**A.** A (A indicates 80-100% mortality)

**Q.** N#CC1(c2cncc(Cl)c2)CC2CCC(C1)N2Cc1c(F)ccc(F)c1Cl (stereo not drawn) [Compound 258] was tested. Which “Score (grading of mortality)” value did it give?
**A.** A (A indicates 80-100% mortality)

**Q.** Which “Score (grading of mortality)” value does the source give for N#CC1(c2cncc(Cl)c2)CC2CCC(C1)N2Cc1ccccc1Cl (stereo not drawn) [Compound 259] here?
**A.** A (A indicates 80-100% mortality)

**Q.** How did the “Score (grading of mortality)” value turn out when N#CC1(c2cncc(Cl)c2)CC2CCC(C1)N2Cc1c(Cl)cccc1Cl (stereo not drawn) [Compound 260] was run?
**A.** A (A indicates 80-100% mortality)
